US11691972B2, “Compounds for targeted degradation of BRD9” (C4 Therapeutics, Inc., priority 2020, dated 2023)
Read-outs that look alike come from different tables or passages of the source.

Biological target: T1, BRD9 (Homo sapiens, UniProt Q9H8M2)
T1 sequence (Q9H8M2 1-597): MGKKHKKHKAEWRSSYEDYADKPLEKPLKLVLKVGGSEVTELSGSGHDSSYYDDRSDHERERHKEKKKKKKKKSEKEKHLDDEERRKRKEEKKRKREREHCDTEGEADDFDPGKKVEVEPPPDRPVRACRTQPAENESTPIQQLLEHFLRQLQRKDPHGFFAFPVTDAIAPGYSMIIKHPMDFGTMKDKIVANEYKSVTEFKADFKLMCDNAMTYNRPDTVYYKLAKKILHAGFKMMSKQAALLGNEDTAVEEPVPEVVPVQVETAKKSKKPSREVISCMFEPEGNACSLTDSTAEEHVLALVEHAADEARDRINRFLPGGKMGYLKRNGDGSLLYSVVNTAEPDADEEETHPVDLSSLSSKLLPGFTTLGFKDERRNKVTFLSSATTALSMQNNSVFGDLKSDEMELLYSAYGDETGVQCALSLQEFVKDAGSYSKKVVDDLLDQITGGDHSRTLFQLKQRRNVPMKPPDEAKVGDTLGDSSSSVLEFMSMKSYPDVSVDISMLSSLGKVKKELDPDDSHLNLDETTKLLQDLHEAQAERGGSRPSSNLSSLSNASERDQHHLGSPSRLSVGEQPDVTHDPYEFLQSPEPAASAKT
Test: HiBiT BRD9 degradation assay in 293T.166 (BRD9-HiBiT) cells
Assay type: cell-based
Parameters: endogenously expressing BRD9 with HiBiT fusion tag via CRISPR; host or cells: 293T.166 (BRD9-HiBiT), also expressing LgBiT ectopically
Conditions: 293T.166 cells, 2.0 hours, class symbols, read-out: HiBiT-Degradation 293T.166 BRD9 2.0 hours (DC50)
In short: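 293T.166 cells carrying endogenous CRISPR BRD9-HiBiT and expressing LgBiT treated 2 h at 37° C. with compounds, 11-point half-log titration from 10 μM in duplicate. Remaining BRD9 measured as lytic HiBiT luminescence; untreated cells as negative control, no-reagent wells as positive control.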

Structure (SMILES) | DC50 (Table 1) [nM] | DC50 (Table 2) [nM]
COc1cc(-c2cn(C)c(=O)c3cnccc23)cc(OC)c1CN1CCc2c(CC3CCN(c4ccc(NC5CCC(=O)NC5=O)cc4C(F)(F)F)CC3)cccc2C1 (centres unmarked) [Compound 237] | < 100 | –
COc1cc(-c2cn(C)c(=O)c3cnccc23)cc(Cl)c1C(=O)N1CCc2c(CC3CCN(c4ccc(NC5CCC(=O)NC5=O)cc4F)CC3)ccc(F)c2C1 (centres unmarked) [Compound 239, 3-[4-[4-[[2-[2-chloro-6-methoxy-4-(2-methyl-1-oxo-2,7-naphthyridin-4-yl)benzoyl]-8-fluoro-3,4-dihydro-1H-isoquinolin-5-yl]methyl]-1-piperidyl]-3-fluoro-anilino]piperidine-2,6-dione] | < 100 | –
COc1cc(-c2cn(C)c(=O)c3[nH]ncc23)cc(Cl)c1C(=O)N1CCc2c(CC3CCN(c4ccc(NC5CCC(=O)NC5=O)cc4F)CC3)ccc(F)c2C1 (centres unmarked) [Compound 240] | < 100 | –
COc1cc(-c2cn(C)c(=O)c3cnccc23)cc(Cl)c1C(=O)N1CCC(CCC2CCN(c3ccc(NC4CCC(=O)NC4=O)cc3F)CC2)CC1 (centres unmarked) [Compound 241, 3-[4-[4-[2-[1-[2-chloro-6-methoxy-4-(2-methyl-1-oxo-2,7-naphthyridin-4-yl)benzoyl]-4-piperidyl]ethyl]-1-piperidyl]-3-fluoro-anilino]piperidine-2,6-dione] | < 100 | –
COc1cc(-c2cn(C)c(=O)c3cnccc23)cc(Cl)c1C(=O)N1CCC(CCC2CCN(c3ccc(NC4CCC(=O)NC4=O)cc3C(F)(F)F)CC2)CC1 (centres unmarked) [Compound 242] | < 100 | –
Cc1c(-c2ccc(CN3CCC(F)(C4CCN(c5ccc(NC6CCC(=O)NC6=O)cc5F)CC4)CC3)c(OC(F)(F)F)c2)cn(C)c(=O)c1C (centres unmarked) [Compound 244] | < 100 | –
COc1cc(-c2cn(C)c(=O)c(C)c2C)cc(Cl)c1CN1CCC(N2CCN(c3ccc(N(C)C4CCC(=O)NC4=O)cc3F)CC2)C(F)(F)C1 (centres unmarked) [Compound 248] | – | < 100
[2H]C([2H])([2H])n1cc(-c2ccc(CN3CCC(C4CCN(c5ccc(NC6CCC(=O)NC6=O)cc5F)CC4)CC3)c(OC(F)(F)F)c2)c2ccncc2c1=O (centres unmarked) [Compound 252, 3-[3-fluoro-4-[4-[1-[[4-[1-oxo-2-(trideuteriomethyl)-2,7-naphthyridin-4-yl]-2-(trifluoromethoxy)phenyl]methyl]-4-piperidyl]-1-piperidyl]anilino]piperidine-2,6-dione] | – | < 100
Cn1cc(-c2ccc(CN3CCC(N4CCN(c5ccc(NC6CCC(=O)NC6=O)nc5)CC4)C(F)(F)C3)c(OC(F)(F)F)c2)c2ccncc2c1=O (centres unmarked) [Compound 253, 3-[[5-[4-[3,3-difluoro-1-[[4-(2-methyl-1-oxo-2,7-naphthyridin-4-yl)-2-(trifluoromethoxy)phenyl]methyl]-4-piperidyl]piperazin-1-yl]-2-pyridyl]amino]piperidine-2,6-dione] | – | < 100
COc1cc(-c2cn(C)c(=O)c3cnccc23)cc(Cl)c1CN1CCC(N2CCN(c3ccc(N(C)C4CCC(=O)NC4=O)cc3F)CC2)C(F)(F)C1 (centres unmarked) [Compound 254, 3-[4-[4-[1-[[2-chloro-6-methoxy-4-(2-methyl-1-oxo-2,7-naphthyridin-4-yl)phenyl]methyl]-3,3-difluoro-4-piperidyl]piperazin-1-yl]-3-fluoro-N-methyl-anilino]piperidine-2,6-dione] | – | < 100
COc1cc(-c2cn(C)c(=O)c3cnccc23)c(Cl)cc1CN1CCC(N2CCN(c3ccc(NC4CCC(=O)NC4=O)cc3F)CC2)C(F)(F)C1 (centres unmarked) [Compound 255] | – | < 100
COc1cc(-c2cn(C)c(=O)c(C)c2C)cnc1CN1CCC(N2CCN(c3ccc(NC4CCC(=O)NC4=O)cc3F)CC2)C(F)(F)C1 (centres unmarked) [Compound 260, 3-[4-[4-[3,3-difluoro-1-[[3-methoxy-5-(1,4,5-trimethyl-6-oxo-3-pyridyl)-2-pyridyl]methyl]-4-piperidyl]piperazin-1-yl]-3-fluoro-anilino]piperidine-2,6-dione] | – | < 100
COc1cc(-c2cn(C)c(=O)c3ccccc23)cnc1CN1CCC(N2CCN(c3ccc(NC4CCC(=O)NC4=O)cc3F)CC2)C(F)(F)C1 (centres unmarked) [Compound 261, 3-[4-[4-[3,3-difluoro-1-[[3-methoxy-5-(2-methyl-1-oxo-4-isoquinolyl)-2-pyridyl]methyl]-4-piperidyl]piperazin-1-yl]-3-fluoro-anilino]piperidine-2,6-dione] | – | < 100
C/C=C/Cn1cc(-c2cc(OC)c(CN3CCC(N4CCN(c5ccc(NC6CCC(=O)NC6=O)cc5F)CC4)C(F)(F)C3)c(OC)c2)c(C)c(C)c1=O (centres unmarked) [Compound 265, 3-[4-[4-[1-[[4-[1-[(E)-but-2-enyl]-4,5-dimethyl-6-oxo-3-pyridyl]-2,6-dimethoxy-phenyl]methyl]-3,3-difluoro-4-piperidyl]piperazin-1-yl]-3-fluoro-anilino]piperidine-2,6-dione] | – | < 100
C/C=C/Cn1cc(-c2cc(Cl)c(CN3CCC(N4CCN(c5ccc(NC6CCC(=O)NC6=O)cc5F)CC4)C(F)(F)C3)c(OC)c2)c2ccncc2c1=O (centres unmarked) [Compound 266] | – | < 100
COc1cc(-c2cn(C)c(=O)c3cnccc23)cc(Cl)c1C(=O)N1CCC(F)(C2CCN(c3ccc(NC4CCC(=O)NC4=O)cc3F)CC2)CC1 (centres unmarked) [Compound 275] | – | < 100

Now from value to compound:

DC50 (Table 1) [nM] | DC50 (Table 2) [nM] | Structure (SMILES)
< 100 | – | COc1cc(-c2cn(C)c(=O)c(C)c2C)cc(OC)c1C(=O)N1CCc2c(CC3CCN(c4ccc(NC5CCC(=O)NC5=O)cc4C(F)(F)F)CC3)cccc2C1 (centres unmarked) [Compound 238]
< 100 | – | COc1cc(-c2cn(C)c(=O)c(C)c2C)cc(Cl)c1C(=O)N1CCC(CCC2CCN(c3ccc(NC4CCC(=O)NC4=O)cc3F)CC2)CC1 (centres unmarked) [Compound 243]
< 100 | – | COc1cc(-c2cn(C)c(=O)c(C)c2C)cc(Cl)c1CN1CCC(F)(C2CCN(c3ccc(NC4CCC(=O)NC4=O)cc3F)CC2)CC1 (centres unmarked) [Compound 245]
– | < 100 | COc1cc(-c2cn(C)c(=O)c(C)c2C)cc(OC)c1CN1CCC(N2CCN(c3ccc(OC4CCC(=O)NC4=O)cc3F)CC2)C(F)(F)C1 (centres unmarked) [Compound 251, 3-[4-[4-[1-[[2,6-dimethoxy-4-(1,4,5-trimethyl-6-oxo-3-pyridyl)phenyl]methyl]-3,3-difluoro-4-piperidyl]piperazin-1-yl]-3-fluoro-phenoxy]piperidine-2,6-dione]
– | < 100 | COc1cc(-c2cn(C)c(=O)c3cnccc23)cc(Cl)c1CN1CCC(C2CCN(c3ccc(NC4CCC(=O)NC4=O)nc3)CC2)C(F)(F)C1 (centres unmarked) [Compound 262]
– | < 100 | COc1cc(-c2cn(C)c(=O)c(C)c2C)cc(Cl)c1CN1CCC(F)(CCC2CCN(c3ccc(NC4CCC(=O)NC4=O)cc3Cl)CC2)CC1 (centres unmarked) [Compound 263]
– | < 100 | COc1cc(-c2cn(C)c(=O)c(C)c2C)cc(Cl)c1CN1CCc2c(CC3CCN(c4ccc(NC5CCC(=O)NC5=O)nc4)CC3)cccc2C1 (centres unmarked) [Compound 264, 3-[[5-[4-[[2-[[2-chloro-6-methoxy-4-(1,4,5-trimethyl-6-oxo-3-pyridyl)phenyl]methyl]-3,4-dihydro-1H-isoquinolin-5-yl]methyl]-1-piperidyl]-2-pyridyl]amino]piperidine-2,6-dione]
– | < 100 | COc1cc(-c2cn(C)c(=O)c3cnccc23)cc(Cl)c1CN1C2CCC1CN(C(=O)CC1CCN(c3ccc(NC4CCC(=O)NC4=O)cc3F)CC1)C2 (centres unmarked) [Compound 271]
– | < 100 | COc1cc(-c2cn(C)c(=O)c(C)c2C)cc(OC)c1CN1C2CCC1CN(C(=O)CC1CCN(c3ccc(NC4CCC(=O)NC4=O)nc3)CC1)C2 (centres unmarked) [Compound 272]
– | < 100 | COc1cc(-c2cn(C)c(=O)c(C)c2C)cc(Cl)c1CN1CCC(C2CCN(c3ccc(NC4CCC(=O)NC4=O)nc3)CC2)C(F)(F)C1 (centres unmarked) [Compound 273]
